# Data taken from PubChem BioAssay AID1259407 (Chemical Carcinogenesis Research Information System (CCRIS), 2018).
# The source made the active and inactive calls. The rule behind the calls is not given here.
# Test system: CCRIS mutagenicity, Ames/micronucleus/aberration tests
# Assay: CCRIS mutagenicity studies
# [1] = Test System: AMES SALMONELLA TYPHIMURIUM, Strain/Indicator: TA100, Metabolic Activation: NONE, Method: PREINCUBATION
# [2] = Test System: AMES SALMONELLA TYPHIMURIUM, Strain/Indicator: TA100, Metabolic Activation: NONE, Method: STANDARD PLATE
# [3] = Test System: AMES SALMONELLA TYPHIMURIUM, Strain/Indicator: TA1535, Metabolic Activation: NONE, Method: STANDARD PLATE
smiles,measurement,setting,value
CC(=O)Nc1ccc(-c2ccc(NC(C)=O)cc2)cc1,mutagenic call,"Test System: AMES SALMONELLA TYPHIMURIUM, Strain/Indicator: TA1538, Metabolic Activation: GUINEA PIG, LIVER, HEPATOCYTES, Method: PREINCUBATION",active; positive
same,mutagenic call,"Test System: AMES SALMONELLA TYPHIMURIUM, Strain/Indicator: TA1538, Metabolic Activation: GUINEA PIG, LIVER, S-9, ACETYL-COA (0.1 OR 1 MILLIMOLAR), Method: PREINCUBATION",active; positive
same,mutagenic call,"Test System: AMES SALMONELLA TYPHIMURIUM, Strain/Indicator: TA1538, Metabolic Activation: GUINEA PIG, LIVER, S-9, Method: PREINCUBATION",active; positive
same,mutagenic call,"Test System: AMES SALMONELLA TYPHIMURIUM, Strain/Indicator: TA1538, Metabolic Activation: HAMSTER, LIVER, HEPATOCYTES, Method: PREINCUBATION",active; positive
same,mutagenic call,"Test System: AMES SALMONELLA TYPHIMURIUM, Strain/Indicator: TA1538, Metabolic Activation: HAMSTER, LIVER, S-9, ACETYL-COA (0.1 OR 1 MILLIMOLAR), Method: PREINCUBATION",active; positive
same,mutagenic call,"Test System: AMES SALMONELLA TYPHIMURIUM, Strain/Indicator: TA1538, Metabolic Activation: HAMSTER, LIVER, S-9, Method: PREINCUBATION",active; positive
same,mutagenic call,"Test System: AMES SALMONELLA TYPHIMURIUM, Strain/Indicator: TA1538, Metabolic Activation: RAT, LIVER, HEPATOCYTES, Method: PREINCUBATION",active; positive
same,mutagenic call,"Test System: AMES SALMONELLA TYPHIMURIUM, Strain/Indicator: TA1538, Metabolic Activation: RAT, LIVER, S-9, ACETYL-COA (0.1 OR 1 MILLIMOLAR), Method: PREINCUBATION",active; positive
same,mutagenic call,"Test System: AMES SALMONELLA TYPHIMURIUM, Strain/Indicator: TA1538, Metabolic Activation: RAT, LIVER, S-9, Method: PREINCUBATION",active; positive
same,mutagenic call,"Test System: Ames Salmonella typhimurium, Strain/Indicator: TA102, Metabolic Activation: None, Method: Preincubation",inactive; negative
same,mutagenic call,"Test System: Ames Salmonella typhimurium, Strain/Indicator: TA102, Metabolic Activation: Rat, liver, S-9, Aroclor 1254, 4%, Method: Preincubation",inactive; negative
c1ccc2c(CCC3CO3)cccc2c1 (stereo not given),mutagenic call,[1],active; positive
same,mutagenic call,[2],active; positive
same,mutagenic call,"Test System: AMES SALMONELLA TYPHIMURIUM, Strain/Indicator: TA1535, Metabolic Activation: NONE, Method: PREINCUBATION",active; positive
same,mutagenic call,[3],active; positive
O=C1OC2(c3ccccc31)c1cc(I)c(O)c(I)c1Oc1c2cc(I)c(O)c1I,mutagenic call,"Test System: AMES SALMONELLA TYPHIMURIUM, Strain/Indicator: TA97A, Metabolic Activation: NONE, Method: PREINCUBATION",inactive; negative
same,mutagenic call,"Test System: AMES SALMONELLA TYPHIMURIUM, Strain/Indicator: TA97A, Metabolic Activation: RAT CECAL CELL-FREE EXTRACTS, Method: PREINCUBATION",inactive; negative
same,mutagenic call,"Test System: AMES SALMONELLA TYPHIMURIUM, Strain/Indicator: TA97A, Metabolic Activation: RAT, LIVER, S9, AROCLOR 1254, Method: PREINCUBATION",inactive; negative
same,mutagenic call,"Test System: AMES SALMONELLA TYPHIMURIUM, Strain/Indicator: TA98, Metabolic Activation: NONE, Method: PREINCUBATION",inactive; negative
same,mutagenic call,"Test System: AMES SALMONELLA TYPHIMURIUM, Strain/Indicator: TA98, Metabolic Activation: NONE, Method: STANDARD PLATE",inactive; negative
same,mutagenic call,"Test System: AMES SALMONELLA TYPHIMURIUM, Strain/Indicator: TA98, Metabolic Activation: RAT CECAL CELL-FREE EXTRACTS, Method: PREINCUBATION",inactive; negative
same,mutagenic call,"Test System: AMES SALMONELLA TYPHIMURIUM, Strain/Indicator: TA98, Metabolic Activation: RAT, LIVER, S9, AROCLOR 1254, Method: PREINCUBATION",inactive; negative
same,mutagenic call,"Test System: AMES SALMONELLA TYPHIMURIUM, Strain/Indicator: TA98, Metabolic Activation: RAT, LIVER, S9, AROCLOR 1254, Method: STANDARD PLATE",inactive; negative
same,mutagenic call,"Test System: AMES SALMONELLA TYPHIMURIUM, Strain/Indicator: TA98, Metabolic Activation: S9, Method: PREINCUBATION",inactive; negative
same,mutagenic call,[1],inactive; negative
same,mutagenic call,[2],inactive; negative
same,mutagenic call,"Test System: AMES SALMONELLA TYPHIMURIUM, Strain/Indicator: TA100, Metabolic Activation: RAT CECAL CELL-FREE EXTRACTS, Method: PREINCUBATION",inactive; negative
same,mutagenic call,"Test System: AMES SALMONELLA TYPHIMURIUM, Strain/Indicator: TA100, Metabolic Activation: RAT, LIVER, S9, AROCLOR 1254, Method: PREINCUBATION",inactive; negative
same,mutagenic call,"Test System: AMES SALMONELLA TYPHIMURIUM, Strain/Indicator: TA100, Metabolic Activation: RAT, LIVER, S9, AROCLOR 1254, Method: STANDARD PLATE",inactive; negative
same,mutagenic call,"Test System: AMES SALMONELLA TYPHIMURIUM, Strain/Indicator: TA100, Metabolic Activation: S9, Method: PREINCUBATION",inactive; negative
same,mutagenic call,"Test System: AMES SALMONELLA TYPHIMURIUM, Strain/Indicator: TA102, Metabolic Activation: NONE, Method: PREINCUBATION",inactive; negative
same,mutagenic call,"Test System: AMES SALMONELLA TYPHIMURIUM, Strain/Indicator: TA102, Metabolic Activation: RAT CECAL CELL-FREE EXTRACTS, Method: PREINCUBATION",inactive; negative
same,mutagenic call,"Test System: AMES SALMONELLA TYPHIMURIUM, Strain/Indicator: TA102, Metabolic Activation: RAT, LIVER, S9, AROCLOR 1254, Method: PREINCUBATION",inactive; negative
same,mutagenic call,"Test System: AMES SALMONELLA TYPHIMURIUM, Strain/Indicator: TA104, Metabolic Activation: NONE, Method: PREINCUBATION",inactive; negative
same,mutagenic call,"Test System: AMES SALMONELLA TYPHIMURIUM, Strain/Indicator: TA104, Metabolic Activation: RAT CECAL CELL-FREE EXTRACTS, Method: PREINCUBATION",inactive; negative
same,mutagenic call,"Test System: AMES SALMONELLA TYPHIMURIUM, Strain/Indicator: TA104, Metabolic Activation: RAT, LIVER, S9, AROCLOR 1254, Method: PREINCUBATION",inactive; negative
same,mutagenic call,[3],inactive; negative
same,mutagenic call,"Test System: AMES SALMONELLA TYPHIMURIUM, Strain/Indicator: TA1535, Metabolic Activation: RAT, LIVER, S9, AROCLOR 1254, Method: STANDARD PLATE",inactive; negative
same,mutagenic call,"Test System: AMES SALMONELLA TYPHIMURIUM, Strain/Indicator: TA1537, Metabolic Activation: NONE, Method: STANDARD PLATE",inactive; negative
same,mutagenic call,"Test System: AMES SALMONELLA TYPHIMURIUM, Strain/Indicator: TA1537, Metabolic Activation: RAT, LIVER, S9, AROCLOR 1254, Method: STANDARD PLATE",inactive; negative
same,mutagenic call,"Test System: AMES SALMONELLA TYPHIMURIUM, Strain/Indicator: TA1538, Metabolic Activation: NONE, Method: STANDARD PLATE",inactive; negative
same,mutagenic call,"Test System: AMES SALMONELLA TYPHIMURIUM, Strain/Indicator: TA1538, Metabolic Activation: RAT, LIVER, S9, AROCLOR 1254, Method: STANDARD PLATE",inactive; negative
same,mutagenic call,"Test System: MOUSE LYMPHOMA, Strain/Indicator: L5178Y (TK+/TK-), Metabolic Activation: RAT, LIVER, S9, AROCLOR 1254, Method: SUSPENSION/PLATE",inactive; negative
O=P1(Oc2ccccc2)OCc2ccccc2O1 (stereo not given),mutagenic call,[2],active; positive
same,mutagenic call,"Test System: AMES SALMONELLA TYPHIMURIUM, Strain/Indicator: TA100, Metabolic Activation: RAT, LIVER, MICROSOMES, Method: STANDARD PLATE",active; positive
